# Patent US11497761B2, “Compositions for the treatment of metastatic cancer” (priority 2019, dated 2022)
# Assays:
# [1] = tested on: iCTCs from pancreatic cancer patients; experiment: iCTC drug response (CDR) testing ex vivo, Project 1 Study-Pancreatic Cancer; assay type: cell-based, human; settings: for number of live iCTCs remaining after treatment: 72 hours
# Experimental: (§1) Materials for Project 1 Study-Pancreatic Cancer • Blood collection tubes: BD Vacutainer® 10 mL sodium heparin tube (BD catalog #367874)). • Vita-Assay™ AN6W plate. • Blood: pancreatic cancer, up to 40-mL blood collected from patients and provided by Conversant Bio. • Stock solution and dilutions • Monolaurin 4.78 mM with 0.75% PS-80 (Stock Solution C), 13.1 mg monolaurin in 0.25 mL PS-80 and 0.75 mL water and 0.1 mL of this solution was diluted with 0.9 mL of RPMI. Stocks are stable for 2 weeks at 4 degrees C. Monolaurin used is an equal mixture of 1-, 2-, and 3-isomers of monolaurin. • Monolaurin dilution: add 209.2 uL, 627.6 uL, and 1.2552 mL of monolaurin in 0.75% PS-80 (Stock solution C), and dilute to 10 mL of media to achieve final concentrations of 100 uM, 200 uM, 300 uM as indicated.
# With respect to FIG. 1, a depiction of a generalized experimental scheme for testing efficacy of a composition in accordance with an exemplary embodiment of the present invention against iCTC from the blood of pancreatic cancer patients is shown. Invasive circulating tumor cells (iCTCs) were obtained from venous blood of the individual with advanced pancreatic cancer, cultured and exposed to a specific drug or battery of drugs at 1×, 2×, and 3× concentrations in vitro for 3 days. Drug responsiveness was measured by automatic flow cytometry using the reduction of live iCTCs in the treated samples from the number of live iCTCs in the untreated controls. The greater the reduction of iCTCs of a given drug at a given dose indicates greater responsiveness to that dose of the drug. Four AN6W plates were used for each sample. Control and drug at each dose in triplicate were incubated for 72 hours. The iCTCs were measured by flow cytometry and viewed by microscopy as described. The complete culture medium contains 10% fetal bovine serum.
# The complete experimental procedure for Project 1 Study-Pancreatic Cancer, with reference to FIG. 1, is as follows:
# 1. Blood collection: up to 40-mL of blood was collected in several sodium heparin tubes from each patient.
# 2. Plasma collection: The patient sample tubes were pooled into a clean 50-mL conical tube and spun at 1,500 rpm for 8 mins at room temperature to separate plasma from blood cells. 3-4 mL of plasma were then collected into a clean 4.5-mL cell-frozen vial (up to 4 vials per patient), a labeled attached and the plasma stored at −80° C. freezer for use. 3. Calculated 50-mL tubes required for lysis of red blood cells: original blood volume. i.e., 36-mL,/2-mL=18. 4. Aliquotted 1/18 the remaining cell fraction into 18 new 50-mL tubes. 5. Red cell lysis: Added 48-mL of 1× red cell lysis buffer into each 50-mL tube to lyse red cells. Tubes placed on a roller mixer at 20-25° C. for 5 min. Cells spun down using low speed centrifugation (1,000 rpm). 6. iCTCs were captured using AN6W plate with or without drug treatment. 7. Drug treatment: Add 1-mL of CTC Capture Medium (standard culture medium containing 10% serum) with or without drugs (3× strength) to each 2-mL of the cell suspension in one well of the AN6W plate. 8. Cell culture: Culture cells in a 5% CO2 incubator at 37° C. for overnight, 72 hours, and 7 days. 9. CAM-enzyme elution of CAM-captured cells: Wells will be washed twice using 2-mL of 1×PBS. Add 0.8-mL of the activated CAM enzyme working solution into the well, and place at 37° C. for 15 min. Transfer cell suspension into a 15-mL conical centrifuge tube. Wash well by pipetting 2-mL of 1×PBS into the well and collect/transfer wash solution into the pool cell suspension. CAM-captured tumor cells will be collected using low speed centrifugation (1,000 rpm) of the conical tube. 10. Preparation of the cells for flow cytometry: Fix the cells by using 1×BD cell fixing buffer and keep at room temperature for 5 min. Add 3-mL of 1×PBS (containing 0.2% BSA buffer), spin down cells and remove the supernatant. 11. […]
# [2] = Stability of monolaurin stock solution; assay type: physicochemical; settings: 4.78 mM with 0.75% PS-80 (Stock Solution C), 4 degrees C
# Experimental: as §1
# Materials for Project 1 Study-Prostate Cancer • Blood collection tubes: BD Vacutainer® 10 mL sodium heparin tube (BD catalog #367874)). • Vita-Assay™ AN6W plate. • Blood: prostate cancer, up to 40-mL blood was collected from patients and provided by Conversant bio. • Stock Solution and Dilutions • Monolaurin, 4.78 mM with 0.75% PS-80 (Stock Solution C), 13.1 mg monolaurin in 0.25 mL PS-80 and 0.75 mL water and 0.1 mL of this solution was diluted with 0.9 mL of RPMI. Stock solutions were stable for 2 weeks at 4 degrees C. […]
# [3] = tested on: primary human T-cell signaling; settings: in vitro, cited from earlier work
# [4] = tested on: Ehrlich ascites tumor cells; settings: in vitro, Kato et al. 1971; cited from earlier work
compound,measurement,setting,value
"CCCCCCCCCCCC(=O)OCC(O)CO (stereo not drawn) [Monolaurin, glycerol monolaurate]",kill rates of iCTCs (summary),[1]; iCTCs from pancreatic cancer patients,high kill rates
same,number of live iCTCs remaining after treatment,"[1]; patient RP01 (Folfirinox), iCTC control 550, 100 uM monolaurin",50
same,number of live iCTCs remaining after treatment,"[1]; patient RP01 (Folfirinox), iCTC control 550, 200 uM monolaurin",0
same,number of live iCTCs remaining after treatment,"[1]; patient RP01 (Folfirinox), iCTC control 550, 300 uM monolaurin",0
same,number of live iCTCs remaining after treatment,"[1]; patient RP03 (Folfirinox), iCTC control 23, 100 uM monolaurin",10
same,number of live iCTCs remaining after treatment,"[1]; patient RP03 (Folfirinox), iCTC control 23, 200 uM monolaurin",0
same,number of live iCTCs remaining after treatment,"[1]; patient RP03 (Folfirinox), iCTC control 23, 300 uM monolaurin",0
same,number of live iCTCs remaining after treatment,"[1]; patient RP04 (Folfirinox), iCTC control 30, 100 uM monolaurin",0
same,number of live iCTCs remaining after treatment,"[1]; patient RP04 (Folfirinox), iCTC control 30, 200 uM monolaurin",0
same,number of live iCTCs remaining after treatment,"[1]; patient RP04 (Folfirinox), iCTC control 30, 300 uM monolaurin",0
same,number of live iCTCs remaining after treatment,"[1]; patient RP10 (Folfirinox), iCTC control 100, 100 uM monolaurin",10
same,number of live iCTCs remaining after treatment,"[1]; patient RP10 (Folfirinox), iCTC control 100, 200 uM monolaurin",0
same,number of live iCTCs remaining after treatment,"[1]; patient RP10 (Folfirinox), iCTC control 100, 300 uM monolaurin",0
same,number of live iCTCs remaining after treatment,"[1]; patient RP11 (Folfirinox), iCTC control 40, 100 uM monolaurin",10
same,number of live iCTCs remaining after treatment,"[1]; patient RP11 (Folfirinox), iCTC control 40, 200 uM monolaurin",10
same,number of live iCTCs remaining after treatment,"[1]; patient RP11 (Folfirinox), iCTC control 40, 300 uM monolaurin",10
same,number of live iCTCs remaining after treatment,"[1]; patient RP12 (Folfirinox), iCTC control 30, 100 uM monolaurin",20
same,number of live iCTCs remaining after treatment,"[1]; patient RP12 (Folfirinox), iCTC control 30, 200 uM monolaurin",0
same,number of live iCTCs remaining after treatment,"[1]; patient RP12 (Folfirinox), iCTC control 30, 300 uM monolaurin",0
same,number of live iCTCs remaining after treatment,"[1]; patient RP16 (Folfirinox), iCTC control 30, 100 uM monolaurin",0
same,number of live iCTCs remaining after treatment,"[1]; patient RP16 (Folfirinox), iCTC control 30, 200 uM monolaurin",0
same,number of live iCTCs remaining after treatment,"[1]; patient RP16 (Folfirinox), iCTC control 30, 300 uM monolaurin",0
same,number of live iCTCs remaining after treatment,"[1]; patient RP17 (Gemzar), iCTC control 50, 100 uM monolaurin",0
same,number of live iCTCs remaining after treatment,"[1]; patient RP17 (Gemzar), iCTC control 50, 200 uM monolaurin",0
same,number of live iCTCs remaining after treatment,"[1]; patient RP17 (Gemzar), iCTC control 50, 300 uM monolaurin",0
same,number of live iCTCs remaining after treatment,"[1]; patient RP18 (Gemzar/Abraxane), iCTC control 175, 100 uM monolaurin",0
same,number of live iCTCs remaining after treatment,"[1]; patient RP18 (Gemzar/Abraxane), iCTC control 175, 200 uM monolaurin",0
same,number of live iCTCs remaining after treatment,"[1]; patient RP18 (Gemzar/Abraxane), iCTC control 175, 300 uM monolaurin",0
same,number of live iCTCs remaining after treatment,"[1]; patient RP22 (Keytruda), iCTC control 45, 100 uM monolaurin",0
same,number of live iCTCs remaining after treatment,"[1]; patient RP22 (Keytruda), iCTC control 45, 200 uM monolaurin",0
same,number of live iCTCs remaining after treatment,"[1]; patient RP22 (Keytruda), iCTC control 45, 300 uM monolaurin",0
same,number of live iCTCs remaining after treatment,"[1]; patient RP′14 (Folfirinox), iCTC control 40, 100 uM monolaurin",20
same,number of live iCTCs remaining after treatment,"[1]; patient RP′14 (Folfirinox), iCTC control 40, 200 uM monolaurin",15
same,number of live iCTCs remaining after treatment,"[1]; patient RP′14 (Folfirinox), iCTC control 40, 300 uM monolaurin",10
same,stock solution stable for,[2],2 weeks
same,concentration interfering with activated T cell adhesion and actin organization,[3]; formulated in 95% ethanol,10 to 20 µg/mL
same,concentration interfering with activated T cell adhesion and actin organization (equivalent),[3]; formulated in 95% ethanol,36 to 73 µM
same,concentrations inhibiting primary human T-cell signaling,[3],36 to 73 µM
same,anticancer activity,[4],only weak activity
